# Data from patent KR20170021349A, “다양한 질병의 치료를 위한 jnk 신호 전달 경로의 세포 투과성 펩타이드 억제자의 새로운 용도” (자이겐 인플라메이션 리미티드, priority 2014, dated 2017).
# “And” between values parts separate entries of the source, which are not always exact repeats. Equal entries are not always repeated.
# Key:
# C57BL/6 mice = test: Bleomycin-induced acute lung inflammation (COPD model); type: in vivo, mouse
# db/db mice = test: db/db mouse model of type 2 diabetes; type: in vivo
# human islets = test: Human islets, 24 h hypoxia; type: cell-based; conditions: 100 μM
# [1] = system: Huh7 tumours in nude mice; test: Huh7 human liver cancer xenograft; type: in vivo, mouse; conditions: 5 mg/kg i.p. twice weekly, 4 weeks
# [2] = system: PC-3 tumours in Balb/c nude mice; test: Subcutaneous PC-3 human prostate tumour; type: in vivo, mouse; conditions: 0.1 and 1 mg/kg/inj Q4Dx4, dose-dependent, more marked at 1 mg/kg
# [3] = system: HCT 116 tumours in SCID mice; test: Orthotopic HCT 116 human colon tumour; type: in vivo, mouse
# [4] = system: Sprague-Dawley albino rats; test: Light-induced photoreceptor damage (AMD model), ERG and ONL thickness; type: in vivo, rat
# Brown Norway rats = test: STZ diabetic retinopathy, repeated subconjunctival administration; type: in vivo, rat
# Lewis rats = test: Endotoxin-induced uveitis (EIU), duration of action after subconjunctival injection; type: in vivo, rat
# [5] = system: female Sprague-Dawley rats; test: CYP-induced acute cystitis, intravenous treatment, visceral pain; type: in vivo, rat; conditions: 2 mg/kg i.v.
# [6] = system: female Sprague-Dawley rats; test: Cystometry in conscious rats with CYP-induced cystitis; type: in vivo, rat; conditions: 2 mg/kg i.v.; 30-60 min post-dose; P<0.01
# [7] = system: primary mouse cortical neurons; test: JNK activation in cortical neurons under H2O2 oxidative stress; type: cell-based; conditions: 5 μM pre-treatment; 1 mM H2O2 15 min
# [8] = system: primary cortical neurons of PKR-/- mice; test: Aβ42-induced stress/apoptosis in PKR-/- cortical neurons; type: cell-based, mouse
# Jurkat cells = test: PMA & ionomycin-induced cytokine production; type: cell-based; conditions: Fig. 27 D-F
# murine macrophages = test: LPS-induced cytokine release in primary cells; type: cell-based, mouse; conditions: Fig. 28 A-C, non-toxic concentrations
# [9] = Stability of stock and diluted solutions; type: physicochemical
# [10] = 20 μg/eye, 1 day before induction
# [11] = 20 μg/eye, 2 days before induction
# [12] = 20 μg/eye, 7 days before induction
# [13] = 20 μg/eye, 14 days before induction
# [14] = 20 μg/eye, 21 days before induction
# [15] = 20 μg/eye, 28 days before induction
# [16] = dual PKR and JNK inhibition, 10 μM
substance,measurement,setting,value
NH2-DQSRPVQPFLNLTTPRKPRPPRRRQRRKKRG-COOH (H-DQSRPVQPFLNLTTPRKPRPPRRRQRRKKRG-OH; also: D-amino acids (positions not given here)) [XG-102],neutrophil recruitment or other cell types in BAL,"C57BL/6 mice; 0.001 mg/kg s.c. single dose, 24 h",영향을 미치지 않았다
same,neutrophil recruitment and total cell number in BAL,"C57BL/6 mice; 0.1 mg/kg s.c. single dose, 24 h",현저하게 감소시켰다
same,lung MPO level,C57BL/6 mice; MPO not induced by bleomycin,영향을 주지 않았다
same,TNF level in BALF,C57BL/6 mice; TNF very low after BLM,감소하는 경향이 관찰되었다
same,effect on fasting blood glucose,db/db mice; 1 mg/kg s.c. daily 28 days,효과가 관찰되지 않았다
same,effect on body weight,"db/db mice; 1 mg/kg, 28 days",효과가 관찰되지 않았다
same,fasting blood glucose plateau,"db/db mice; 10 mg/kg s.c. daily 21 days, persisted to day 111, p<0.001",~5 mmol/L
same,"brain, spleen, heart weight","db/db mice; 10 mg/kg, day 111",현저한 효과가 관찰되지 않았다
same,epididymal (p<0.05) and retroperitoneal (p<0.01) fat mass,"db/db mice; 10 mg/kg, day 111",현저한 감소를 관찰했다
same,kidney (p<0.05) and liver (p<0.01) mass,"db/db mice; 10 mg/kg, day 111",현저한 감소가 관찰되었다
same,"plasma insulin, MCP-1, IL-6, tPAI-1, TNF","db/db mice; 10 mg/kg, days 57, 77, 108",현저한 효과가 발견되지 않았으며
same,plasma resistin,"db/db mice; 10 mg/kg, days 77 and 108",현저하게 높았다
same,"24 h food and water intake, urine and faeces production","db/db mice; 10 mg/kg, metabolic cages",현저한 효과는 관찰되지 않았다
same,body weight gain,"db/db mice; 10 mg/kg, from day 28 to 111",명확하고 현저한 예방
same,injection-site finding in subcutaneous tissue,"db/db mice; high dose, after about 2 weeks of dosing, progressed to open wounds, healed after end of dosing",결절 섬유화가 발견되었고
same,hypoxia-induced islet apoptosis,human islets,세포 자멸을 감소시키는
same,islet necrosis,human islets; normoxia and hypoxia,괴사를 감소시키는
same,tumour growth,[1],종양 성장을 현저하게 감소시켰다
same,mean tumour volume over time,[2],종양 부피의 감소
same,mice with more than 1 liver metastasis,[3]; 0.1 mg/kg PO,25%
same,mean body weight change at D-2,[3]; 0.1 mg/kg/adm PO,7.1±4.6%
same,number of mice without liver metastasis,[3]; 1 mg/kg PO,가장 높았으며
same,mice with more than 1 liver metastasis,"[3]; 1 mg/kg PO, vehicle 40%",12.5%
same,mice with more than 1 liver metastasis,[3]; 1 mg/kg SC,25%
same,"mortality D0-D9 (surgical complications) in the four treated groups, as listed","[3]; PO/SC 0.1 and 1 mg/kg Q1Dx14, vehicle 33%, group order not given",40% and 34% and 47%
same,tolerance of treatment,[3]; Q1Dx14,내약(tolerated)되었음
same,b-wave recovery (% of baseline),"[4]; 1.5 μg/eye IVT, day 9",55.3%
same,a-wave recovery (% of baseline),"[4]; 1.5 μg/eye IVT, day 16",47.5%
same,b-wave recovery (% of baseline),"[4]; 1.5 μg/eye IVT, day 16",61.7%
same,a-wave recovery (% of baseline),"[4]; 1.5 μg/eye IVT, day 23",48.3%
same,b-wave recovery (% of baseline),"[4]; 1.5 μg/eye IVT, day 23",73.5%
same,ONL thickness loss (% vs non-induced control eyes),[4]; 1.5 μg/eye ivt,39%
same,ONL thickness,"[4]; 1.5 μg/eye ivt, day 23, p<0.05 vs vehicle",24.89 ± 4.01 μm
same,b-wave recovery (% of baseline),"[4]; 15 μg/eye IVT, day 9",60.6%
same,a-wave recovery (% of baseline),"[4]; 15 μg/eye IVT, day 16",51.1%
same,b-wave recovery (% of baseline),"[4]; 15 μg/eye IVT, day 16",62.3%
same,a-wave recovery (% of baseline),"[4]; 15 μg/eye IVT, day 23",41.8%
same,b-wave recovery (% of baseline),"[4]; 15 μg/eye IVT, day 23",56.5%
same,ONL thickness loss (% vs non-induced control eyes),[4]; 15 μg/eye ivt,40%
same,ONL thickness,"[4]; 15 μg/eye ivt, day 23, p<0.05 vs vehicle",24.42 ± 5.99 μm
same,a-wave recovery (% of baseline),"[4]; 150 μg/eye IVT, day 9 (vehicle 5.7)",23.6%
same,b-wave recovery (% of baseline),"[4]; 150 μg/eye IVT, day 9 (vehicle 15)",31.9%
same,a-wave recovery (% of baseline),"[4]; 150 μg/eye IVT, day 16 (vehicle 13.2)",24.1%
same,b-wave recovery (% of baseline),"[4]; 150 μg/eye IVT, day 16 (vehicle 24.8)",38.9%
same,a-wave recovery (% of baseline),"[4]; 150 μg/eye IVT, day 23 (vehicle 22.5)",23.7%
same,b-wave recovery (% of baseline),"[4]; 150 μg/eye IVT, day 23 (vehicle 30.6)",37.1%
same,ONL thickness loss (% vs non-induced control eyes),[4]; 150 μg/eye ivt,53%
same,ONL thickness,"[4]; 150 μg/eye ivt, day 23",18.95 ± 9.17 μm
same,decline of contrast threshold,Brown Norway rats; 200 μg/eye,현저하게 지연되었다
same,"ocular irritation (chemosis, hyperemia, discharge)","Brown Norway rats; 2, 20, 200 μg/eye every 2 weeks subconj.",안구 자극이 관찰되지 않았다
same,retinal cytokine levels (all 23),Brown Norway rats; 20 or 200 μg/eye,BLQ
same,progression of visual acuity loss (spatial frequency threshold),"Brown Norway rats; 20 or 200 μg/eye, days 57-99",현저하게 지연시켰다
same,contrast threshold vs vehicle,"Brown Norway rats; all doses, day 99",현저하게 높은 대조 역치 값을 가졌으며
same,visual acuity score vs vehicle-treated STZ group,"Brown Norway rats; all doses, day 113 (significant at 2 and 200 μg/eye)",높은 시력 점수를 보였고
same,"clinical score, mean ± SEM (n=20)","Lewis rats; 20 μg/eye subconj., day of induction, 24 h after LPS, vehicle 4.0 ± 0.2",2.8 ± 0.2
same,"clinical score, mean ± SEM (n=20)",Lewis rats; [10],1.6 ± 0.1
same,"clinical score, median",Lewis rats; [10],1.5
same,"leukocytes in aqueous humor, mean ± SEM (n=20)",Lewis rats; [10],1668 ± 149 세포/μL
same,"leukocytes in aqueous humor, median",Lewis rats; [10],1540 세포/μL
same,reduction of clinical score,Lewis rats; [10],60%
same,reduction of leukocyte infiltration,Lewis rats; [10],48%
same,"clinical score, mean ± SEM (n=20)",Lewis rats; [11],1.8 ± 0.2
same,"clinical score, median",Lewis rats; [11],2.0
same,"leukocytes in aqueous humor, mean ± SEM (n=20)",Lewis rats; [11],1844 ± 232 세포/μL
same,"leukocytes in aqueous humor, median",Lewis rats; [11],1500 세포/μL
same,reduction of clinical score,Lewis rats; [11],55%
same,reduction of leukocyte infiltration,Lewis rats; [11],43%
same,"clinical score, mean ± SEM (n=20)",Lewis rats; [12],3.3 ± 0.2
same,"clinical score, median",Lewis rats; [12],3.0
same,"leukocytes in aqueous humor, mean ± SEM (n=20)",Lewis rats; [12],2878 ± 331 세포/μL
same,"leukocytes in aqueous humor, median",Lewis rats; [12],2473 세포/μL
same,reduction of clinical score,Lewis rats; [12],18%
same,reduction of leukocyte infiltration,Lewis rats; [12],11%
same,"clinical score, mean ± SEM (n=20)",Lewis rats; [13],2.9 ± 0.2
same,"clinical score, median",Lewis rats; [13],3.0
same,"leukocytes in aqueous humor, mean ± SEM (n=20)",Lewis rats; [13],976 ± 143 세포/μL
same,"leukocytes in aqueous humor, median",Lewis rats; [13],648 세포/μL
same,reduction of clinical score,Lewis rats; [13],28%
same,reduction of leukocyte infiltration,Lewis rats; [13],70%
same,"clinical score, mean ± SEM (n=20)",Lewis rats; [14],3.1 ±0.3
same,"clinical score, median",Lewis rats; [14],3.0
same,"leukocytes in aqueous humor, mean ± SEM (n=20)",Lewis rats; [14],1029 ± 164 세포/μL
same,"leukocytes in aqueous humor, median",Lewis rats; [14],1023 세포/μL
same,reduction of clinical score,Lewis rats; [14],23%
same,reduction of leukocyte infiltration,Lewis rats; [14],68%
same,"clinical score, mean ± SEM (n=20)",Lewis rats; [15],3.3 ± 0.2
same,"clinical score, median",Lewis rats; [15],4.0
same,"leukocytes in aqueous humor, mean ± SEM (n=20)",Lewis rats; [15],1260 ± 263 세포/μL
same,"leukocytes in aqueous humor, median",Lewis rats; [15],915 세포/μL
same,reduction of clinical score,Lewis rats; [15],18%
same,reduction of leukocyte infiltration,Lewis rats; [15],61%
same,"clinical score, median","Lewis rats; 20 μg/eye, day of induction",3.0
same,"leukocytes in aqueous humor, median","Lewis rats; 20 μg/eye, day of induction",2005 세포/μL
same,reduction of clinical score,"Lewis rats; 20 μg/eye, day of induction",30%
same,reduction of leukocyte infiltration,"Lewis rats; 20 μg/eye, day of induction",31%
same,"leukocytes in aqueous humor, mean ± SEM (n=20)","Lewis rats; 20 μg/eye, day of induction, vehicle 3236 ± 346",2226 ± 192 세포/μL
same,nociceptive threshold vs vehicle,"[5]; 24 h after CYP, p<0.01",현저하게 증가하였다
same,AUC 1-8 g (allodynia) vs vehicle,[5]; p<0.001,현저하게 감소되었다
same,AUC 8-60 g (hyperalgesia) vs vehicle,[5]; p<0.001,현저하게 감소되었다
same,nociceptive scores vs vehicle,[5]; p<0.001,현저하게 감소시켰다
same,intercontraction interval (ICI) and bladder capacity (BC) vs basal,[6],현저하게 증가시켰다
same,threshold pressure (ThP) vs basal,[6],현저한 감소
same,JNK activity (pJNK/JNK) induced by H2O2,[7],JNK 활성을 억제하였다
same,decrease of PARP expression level vs treated WT neurons,[8]; [16],93%
same,decrease of caspase 3 activity vs treated WT neurons,[8]; [16],87%
same,decrease of cleaved caspase 3 vs treated WT neurons,[8]; [16],83%
same,change of JNK activation,"[8]; peptide pre-treatment (XG-102 10 μM), 2 μM Aβ42",-35%
same,c-Jun activation,"[8]; peptide pre-treatment, 2 μM Aβ42",변화시키지 않았다
same,"PMA & ionomycin-induced IFNg, IL-6, IL-2 production",Jurkat cells,사이토카인 방출을 억제한다
same,"LPS-induced TNFa, IL-6, Rantes release",murine macrophages,사이토카인 방출을 억제한다
same,stability of diluted formulations for animal dosing,[9]; 2-4°C,24 시간
same,stability of stock solution (1 mM),[9]; about -80°C,3 개월
same,stability of stock solution (10 mM in water),[9]; about -80°C,≥ 100 일
same,stability of diluted formulations for animal dosing,[9]; room temperature,24 시간
same,stability in saline,"[9]; room temperature, 10 μg/ml - 50 mg/ml",8 시간
